Measured values as given in ChEMBL document CHEMBL1201861, “Genomics of Drug Sensitity in Cancer screening data, Wellcome Trust Sanger Institute”.

Assays:
[1] = tested on: HCT-15; test: cells; format: functional, cell-based, Homo sapiens; settings: Homo sapiens, HCT-15;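 also: cell viability readout, IC50 reflecting suppression of HCT-15 cell growth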
Description: SANGER: Inhibition of human HCT-15 cell growth in a cell viability assay.

[2] = tested on: NCI-H1882; test: cells; format: functional, cell-based; settings: Homo sapiens;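 also: growth inhibition of the cell line, determined with a viability assay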
Description: SANGER: Inhibition of human NCI-H1882 cell growth in a cell viability assay.

[3] = tested on: TALL-1; test: cells; format: functional, cell-based; settings: Homo sapiens;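 also: growth inhibition of cultured human TALL-1 cells, read out by a cell viability assay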
Description: SANGER: Inhibition of human TALL-1 cell growth in a cell viability assay.

[4] = tested on: NCI-H1694; test: cells; format: functional, cell-based; settings: Homo sapiens;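 also: cell viability assay measuring inhibition of growth in human NCI-H1694 cells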
Description: SANGER: Inhibition of human NCI-H1694 cell growth in a cell viability assay.

[5] = tested on: TE-441-T; test: cells; format: functional, cell-based; settings: Homo sapiens
Description: SANGER: Inhibition of human TE-441-T cell growth in a cell viability assay.

[6] = tested on: UACC-812; test: cells; format: functional, cell-based; settings: Homo sapiens
Description: SANGER: Inhibition of human UACC-812 cell growth in a cell viability assay.

[7] = tested on: PF-382; test: cells; format: functional, cell-based; settings: Homo sapiens
Description: SANGER: Inhibition of human PF-382 cell growth in a cell viability assay.

[8] = tested on: LC-1F; test: cells; format: functional, cell-based; settings: Homo sapiens;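 also: growth inhibition of human LC-1F cells, read out with a cell viability assay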
Description: SANGER: Inhibition of human LC-1F cell growth in a cell viability assay.

[9] = tested on: KMS-12-PE; test: cells; format: functional, cell-based; settings: Homo sapiens;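 also: growth inhibition of human KMS-12-PE cells, measured with a cell viability assay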
Description: SANGER: Inhibition of human KMS-12-PE cell growth in a cell viability assay.

[10] = tested on: BL-70; test: SANGER: Inhibition of human BL-70 cell growth in a cell viability assay.; format: functional, cell-based
[11] = tested on: EB2; test: cells; format: functional, cell-based; settings: Homo sapiens;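 also: growth inhibition of EB2 cells, read out with a cell viability assay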
Description: SANGER: Inhibition of human EB2 cell growth in a cell viability assay.

[12] = tested on: SNU-423; test: cells; format: functional, cell-based, Homo sapiens; settings: Homo sapiens, SNU-423
Description: SANGER: Inhibition of human SNU-423 cell growth in a cell viability assay.

[13] = tested on: DMS-153; test: cells; format: functional, cell-based; settings: Homo sapiens
Description: SANGER: Inhibition of human DMS-153 cell growth in a cell viability assay.

[14] = tested on: NCI-H2081; test: cells; format: functional, cell-based; settings: Homo sapiens;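 also: growth inhibition of human NCI-H2081 cells, read out with a cell viability assay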
Description: SANGER: Inhibition of human NCI-H2081 cell growth in a cell viability assay.

[15] = tested on: EVSA-T; test: cells; format: functional, cell-based, Homo sapiens; settings: Homo sapiens, EVSA-T;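 also: growth inhibition of EVSA-T cells, read out with a cell viability assay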
Description: SANGER: Inhibition of human EVSA-T cell growth in a cell viability assay.

[16] = tested on: SU-DHL-1; test: SANGER: Inhibition of human SU-DHL-1 cell growth in a cell viability assay.; format: functional, cell-based
[17] = tested on: KARPAS-422; test: cells; format: functional, cell-based; settings: Homo sapiens
Description: SANGER: Inhibition of human KARPAS-422 cell growth in a cell viability assay.

[18] = tested on: NCI-H719; test: cells; format: functional, cell-based; settings: Homo sapiens;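 also: growth inhibition of the cultured cell line, read out with a viability assay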
Description: SANGER: Inhibition of human NCI-H719 cell growth in a cell viability assay.

[19] = tested on: RPMI-6666; test: cells; format: functional, cell-based; settings: Homo sapiens
Description: SANGER: Inhibition of human RPMI-6666 cell growth in a cell viability assay.

[20] = tested on: G-361; test: cells; format: functional, cell-based, Homo sapiens; settings: Homo sapiens, G-361
[21] = tested on: ECC12; test: cells; format: functional, cell-based; settings: Homo sapiens
Description: SANGER: Inhibition of human ECC12 cell growth in a cell viability assay.

[22] = tested on: BL-41; test: cells; format: functional, cell-based; settings: Homo sapiens;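 also: growth inhibition of human BL-41 cells, read out with a cell viability assay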
Description: SANGER: Inhibition of human BL-41 cell growth in a cell viability assay.

[23] = tested on: RL95-2; test: cells; format: functional, cell-based; settings: Homo sapiens;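 also: RL95-2 growth inhibition determined through a cell viability readout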
Description: SANGER: Inhibition of human RL95-2 cell growth in a cell viability assay.

[24] = tested on: NCI-H1522; test: cells; format: functional, cell-based; settings: Homo sapiens;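 also: growth inhibition of NCI-H1522 cells, read out with a cell viability assay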
Description: SANGER: Inhibition of human NCI-H1522 cell growth in a cell viability assay.

[25] = tested on: EHEB; test: cells; format: functional, cell-based; settings: Homo sapiens;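 also: growth inhibition of human EHEB cells, read out with a cell viability assay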
Description: SANGER: Inhibition of human EHEB cell growth in a cell viability assay.

[26] = tested on: 23132-87; test: cells; format: functional, cell-based, Homo sapiens; settings: Homo sapiens
Description: SANGER: Inhibition of human 23132-87 cell growth in a cell viability assay.

[27] = tested on: IMR-5; test: cells; format: functional, cell-based; settings: Homo sapiens;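 also: growth inhibition of human IMR-5 cells, read out with a cell viability assay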
Description: SANGER: Inhibition of human IMR-5 cell growth in a cell viability assay.

[28] = tested on: SCLC-21H; test: cells; format: functional, cell-based; settings: Homo sapiens;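 also: growth inhibition of cultured human SCLC-21H cells, read out with a cell viability assay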
Description: SANGER: Inhibition of human SCLC-21H cell growth in a cell viability assay.

[29] = tested on: LP-1; test: cells; format: functional, cell-based; settings: Homo sapiens;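 also: growth inhibition of human LP-1 cells, with the read-out taken from a cell viability assay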
Description: SANGER: Inhibition of human LP-1 cell growth in a cell viability assay.

[30] = tested on: Daudi; test: cells; format: functional, cell-based; settings: Homo sapiens;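 also: growth inhibition of Daudi cells, read out by a viability assay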
Description: SANGER: Inhibition of human Daudi cell growth in a cell viability assay.

[31] = tested on: CPC-N; test: cells; format: functional, cell-based; settings: Homo sapiens;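 also: growth inhibition of CPC-N cells, with a cell viability assay as the readout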
Description: SANGER: Inhibition of human CPC-N cell growth in a cell viability assay.

[32] = tested on: HCC1599; test: cells; format: functional, cell-based; settings: Homo sapiens;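 also: growth inhibition of HCC1599 cells, read out in a cell viability assay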
Description: SANGER: Inhibition of human HCC1599 cell growth in a cell viability assay.

[33] = tested on: NCI-H522; test: cells; format: functional, cell-based, Homo sapiens; settings: Homo sapiens, NCI-H522;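 also: cell viability assay measuring growth inhibition of human NCI-H522 cells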
Description: SANGER: Inhibition of human NCI-H522 cell growth in a cell viability assay.

[34] = tested on: HuO9; test: cells; format: functional, cell-based, Homo sapiens; settings: Homo sapiens, HuO9;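 also: growth inhibition of HuO9 cells, read out with a cell viability assay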
Description: SANGER: Inhibition of human HuO9 cell growth in a cell viability assay.

[35] = tested on: NCI-H1703; test: cells; format: functional, cell-based, Homo sapiens; settings: Homo sapiens, NCI-H1703;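 also: growth inhibition of NCI-H1703 cells, read out via a cell viability assay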
Description: SANGER: Inhibition of human NCI-H1703 cell growth in a cell viability assay.

[36] = tested on: RPMI 8402; test: SANGER: Inhibition of human RPMI-8402 cell growth in a cell viability assay.; format: functional, cell-based
[37] = tested on: L-540; test: cells; format: functional, cell-based; settings: Homo sapiens;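 also: growth inhibition of the human L-540 cell line, read out with a viability assay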
Description: SANGER: Inhibition of human L-540 cell growth in a cell viability assay.

[38] = tested on: CMK; test: cells; format: functional, cell-based; settings: Homo sapiens;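 also: growth inhibition of CMK cells, read out as cell viability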
Description: SANGER: Inhibition of human CMK cell growth in a cell viability assay.

[39] = tested on: NCI-H1417; test: cells; format: functional, cell-based; settings: Homo sapiens;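 also: human NCI-H1417 cells, growth inhibition determined with a cell viability readout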
Description: SANGER: Inhibition of human NCI-H1417 cell growth in a cell viability assay.

[40] = tested on: NB1; test: cells; format: functional, cell-based; settings: Homo sapiens;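 also: reduction of NB1 cell proliferation, read out with a viability assay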
Description: SANGER: Inhibition of human NB1 cell growth in a cell viability assay.

[41] = tested on: SUP-T1; test: cells; format: functional, cell-based; settings: Homo sapiens;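 also: growth inhibition of human SUP-T1 cells, read out as cell viability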
Description: SANGER: Inhibition of human SUP-T1 cell growth in a cell viability assay.

[42] = tested on: MRK-nu-1; test: cells; format: functional, cell-based; settings: Homo sapiens;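 also: cell viability assay measuring growth suppression of human MRK-nu-1 cells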
Description: SANGER: Inhibition of human MRK-nu-1 cell growth in a cell viability assay.

[43] = tested on: JIYOYE; test: cells; format: functional, cell-based; settings: Homo sapiens
Description: SANGER: Inhibition of human JiyoyeP-2003 cell growth in a cell viability assay.

[44] = tested on: NCCIT; test: SANGER: Inhibition of human NCCIT cell growth in a cell viability assay.; format: functional, cell-based
[45] = tested on: NCI-H2196; test: cells; format: functional, cell-based; settings: Homo sapiens;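 also: cell viability assay used as the readout of growth inhibition in NCI-H2196 cells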
Description: SANGER: Inhibition of human NCI-H2196 cell growth in a cell viability assay.

[46] = tested on: NCI-H1436; test: cells; format: functional, cell-based; settings: Homo sapiens;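 also: growth suppression of human NCI-H1436 cells, determined with a cell viability readout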
Description: SANGER: Inhibition of human NCI-H1436 cell growth in a cell viability assay.

[47] = tested on: CA46; test: cells; format: functional, cell-based; settings: Homo sapiens;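 also: growth inhibition of human CA46 cells, read out by a cell viability assay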
Description: SANGER: Inhibition of human CA46 cell growth in a cell viability assay.

[48] = tested on: HT55; test: cells; format: functional, cell-based, Homo sapiens; settings: Homo sapiens, HT55;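 also: cell viability readout measuring growth inhibition of human HT55 cells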
Description: SANGER: Inhibition of human HT55 cell growth in a cell viability assay.

[49] = tested on: Kasumi 1; test: cells; format: functional, cell-based; settings: Homo sapiens;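 also: growth inhibition of human Kasumi-1 cells, read out by a cell viability assay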
Description: SANGER: Inhibition of human KASUMI-1 cell growth in a cell viability assay.

[50] = tested on: ARH-77; test: cells; format: functional, cell-based; settings: Homo sapiens;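 also: growth inhibition of ARH-77 cells, read out by a cell viability assay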
Description: SANGER: Inhibition of human ARH-77 cell growth in a cell viability assay.

[51] = tested on: NCI-H748; test: cells; format: functional, cell-based; settings: Homo sapiens;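 also: growth inhibition of NCI-H748 cells, measured by a cell viability assay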
Description: SANGER: Inhibition of human NCI-H748 cell growth in a cell viability assay.

With Cc1cnc(-c2cnc(NCCNc3ccc(C#N)cn3)nc2-c2ccc(Cl)cc2Cl)[nH]1 [LADUVIGLUSIB] the IC50 [1] was > 2560 nM, the IC50 [2] was > 2560 nM and the IC50 [3] was > 2560 nM. For the same molecule, the IC50 [4] was > 2560 nM, the IC50 [5] was > 2560 nM and the IC50 [6] was > 2560 nM. For the same molecule, the IC50 [7] was > 2560 nM, the IC50 [8] was > 2560 nM and the IC50 [9] was > 2560 nM. For the same molecule, the IC50 [10] was > 2560 nM, the IC50 [11] was > 2560 nM and the IC50 [12] was 2500 nM. For the same molecule, the IC50 [13] was > 2560 nM, the IC50 [14] was > 2560 nM and the IC50 [15] was > 2560 nM. For the same molecule, the IC50 [16] was > 2560 nM, the IC50 [17] was > 2560 nM and the IC50 [18] was > 2560 nM. For the same molecule, the IC50 [19] was > 2560 nM, the IC50 [20] was > 2560 nM and the IC50 [21] was > 2560 nM. For the same molecule, the IC50 [22] was > 2560 nM, the IC50 [23] was > 2560 nM and the IC50 [24] was > 2560 nM. The IC50 [25] was > 2560 nM, the IC50 [26] was > 2560 nM and the IC50 [27] was > 2560 nM. For the same molecule, the IC50 [28] was > 2560 nM, the IC50 [29] was > 2560 nM and the IC50 [30] was > 2560 nM. The IC50 [31] was > 2560 nM, the IC50 [32] was > 2560 nM and the IC50 [33] was > 2560 nM. The IC50 [34] was > 2560 nM, the IC50 [35] was > 2560 nM and the IC50 [36] was > 2560 nM. The IC50 [37] was > 2560 nM, the IC50 [38] was > 2560 nM and the IC50 [39] was > 2560 nM. The IC50 [40] was > 2560 nM, the IC50 [41] was > 2560 nM and the IC50 [42] was > 2560 nM. For the same molecule, the IC50 [43] was > 2560 nM, the IC50 [44] was > 2560 nM and the IC50 [45] was > 2560 nM. The IC50 [46] was > 2560 nM, the IC50 [47] was > 2560 nM and the IC50 [48] was > 2560 nM. The IC50 [49] was > 2560 nM, the IC50 [50] was > 2560 nM and the IC50 [51] was > 2560 nM.
CN(c1ncccc1CNc1nc(Nc2ccc3c(c2)CC(=O)N3)ncc1C(F)(F)F)S(C)(=O)=O [PF-00562271] was tested, and the IC50 [1] was > 2560 nM, the IC50 [2] was > 2560 nM and the IC50 [3] was > 2560 nM. For the same molecule, the IC50 [4] was > 2560 nM, the IC50 [5] was > 2560 nM and the IC50 [6] was > 2560 nM. The IC50 [7] was > 2560 nM, the IC50 [8] was > 2560 nM and the IC50 [9] was > 2560 nM. The IC50 [10] was > 2560 nM, the IC50 [11] was > 2560 nM and the IC50 [12] was > 2560 nM. For the same molecule, the IC50 [13] was > 2560 nM, the IC50 [14] was > 2560 nM and the IC50 [15] was > 2560 nM. The IC50 [16] was > 2560 nM, the IC50 [17] was > 2560 nM and the IC50 [18] was > 2560 nM. The IC50 [19] was > 2560 nM, the IC50 [20] was > 2560 nM and the IC50 [21] was > 2560 nM. For the same molecule, the IC50 [22] was > 2560 nM, the IC50 [23] was > 2560 nM and the IC50 [24] was > 2560 nM. The IC50 [25] was > 2560 nM, the IC50 [26] was > 2560 nM and the IC50 [27] was > 2560 nM. For the same molecule, the IC50 [28] was > 2560 nM, the IC50 [29] was > 2560 nM and the IC50 [30] was > 2560 nM. The IC50 [31] was > 2560 nM, the IC50 [32] was > 2560 nM and the IC50 [33] was > 2560 nM. The IC50 [34] was > 2560 nM, the IC50 [35] was > 2560 nM and the IC50 [36] was > 2560 nM. The IC50 [37] was > 2560 nM, the IC50 [38] was 2420 nM and the IC50 [39] was > 2560 nM. The IC50 [40] was > 2560 nM, the IC50 [41] was > 2560 nM and the IC50 [42] was > 2560 nM. The IC50 [43] was > 2560 nM, the IC50 [44] was > 2560 nM and the IC50 [45] was > 2560 nM. The IC50 [46] was > 2560 nM, the IC50 [47] was > 2560 nM and the IC50 [48] was > 2560 nM. The IC50 [49] was 2330 nM, the IC50 [50] was > 2560 nM and the IC50 [51] was > 2560 nM.
CCC1=C[C@@H]2CN(C1)Cc1c([nH]c3ccccc13)[C@@](C(=O)OC)(c1cc3c(cc1OC)N(C)[C@H]1[C@@](O)(C(=O)OC)[C@H](OC(C)=O)[C@]4(CC)C=CCN5CC[C@]31[C@@H]54)C2 [VINORELBINE] was tested, and the IC50 [1] was > 64 nM, the IC50 [2] was 36.5 nM and the IC50 [3] was > 64 nM. For the same molecule, the IC50 [4] was 44.4 nM, the IC50 [5] was 34.9 nM and the IC50 [6] was > 64 nM. It also gave an IC50 [7] of 11.7 nM, an IC50 [8] of 44.8 nM and an IC50 [9] of 60.1 nM. It also gave an IC50 [10] of 3.16 nM, an IC50 [11] of 6.7 nM and an IC50 [12] of 5.54 nM. For the same molecule, the IC50 [13] was > 64 nM, the IC50 [14] was 33.6 nM and the IC50 [15] was > 64 nM. For the same molecule, the IC50 [16] was 9.45 nM, the IC50 [17] was 23.3 nM and the IC50 [18] was > 64 nM. The IC50 [19] was 6.86 nM, the IC50 [20] was 3.53 nM and the IC50 [21] was 0.509 nM. For the same molecule, the IC50 [22] was 5.28 nM, the IC50 [23] was 7.13 nM and the IC50 [24] was > 64 nM. The IC50 [25] was > 64 nM, the IC50 [26] was 6.95 nM and the IC50 [27] was 11.3 nM. For the same molecule, the IC50 [28] was > 64 nM, the IC50 [29] was > 64 nM and the IC50 [30] was > 64 nM. For the same molecule, the IC50 [31] was > 64 nM, the IC50 [32] was 10.6 nM and the IC50 [33] was 0.535 nM. The IC50 [34] was 7.09 nM, the IC50 [35] was 2.83 nM and the IC50 [36] was 12.3 nM. The IC50 [37] was 30 nM, the IC50 [38] was 13.7 nM and the IC50 [39] was 24.1 nM. For the same molecule, the IC50 [40] was 26.1 nM, the IC50 [41] was 4.72 nM and the IC50 [42] was 4.47 nM. The IC50 [43] was 10.7 nM, the IC50 [44] was 5.42 nM and the IC50 [45] was > 64 nM. For the same molecule, the IC50 [46] was 13.6 nM, the IC50 [47] was 22.2 nM and the IC50 [48] was > 64 nM. It also gave an IC50 [49] of 17.7 nM, an IC50 [50] of 17.8 nM and an IC50 [51] of 57 nM.
